Common to all, as to format: biochemical
One assay has as its target Recombinant human FGFR2 (Homo sapiens, UniProt P21802). The assay is described as follows: Transcreener Kinase Assay of FGFR2. Conditions: read-out: FGFR2 (FP) IC50. The procedure: Transcreener Kinase Assay of FGFR2
• Compounds were solved in DMSO and were diluted with assay buffer to 5 folds of final concentration keeping the DMSO concentration at 5%. Further dilution are needed to make final concentrations are at 1, 0.33, 0.11, 0.037, 0.012, 0.004, 0.0014, 0.0005 μM; (the final concentration of DMSO is 1%). • Enzyme/Substrate stock Preparation: Recombinant human FGFR2 and Poly E4Y are both diluted in assay buffer. The final concentration is 0.3 ng/μL for FGFR2 and 62.5 ng/μL for Poly E4Y. The mixture is being kept in ice before use; • Prepare ATP Diluents, 10 mM ATP is diluted in assay buffer, the final concentration is 25 μM; • Prepare ADP Diluents: diluted ADP (500 μM) in assay buffer, the final concentration is 25 μM; • Prepare ATP standard curve stock as following:
• In a 96-well plate, Add 5 μL of compound or control. (positive control: 5 μL of 5% DMSO; negative control: 5 μL of 500 mM EDTA) into desired wells; • Add 10 μL of Enzyme/Substrate stock into each well; • Add 10 μL of ATP Diluents to initiate the enzyme reaction and votex the plate immediately on a plate shaker; • For the wells to make standard curve, add 5 μL of 5% DMSO, 10 μL of assay buffer and 10 μL of ATP standard curve stock. • Incubate the plate for 45 min at 28[…] on a plate shaker in a low speed.
• Detection Mix Preparation: The mixture is made by dilution with MilliQ water; as following: ADP Alexa633 tracer (1:100), ADP antibody (1:158), and stop & detect buffer (1:10); • Tracer Only control Preparation: The mixture is made by dilution with MilliQ water; as following: ADP Alexa633 tracer (1:100), and stop & detect buffer (1:10) • No Tracer control Preparation: stop & detect buffer is diluted with MilliQ water; by 10 fold. • Add 25 μL of detection mix, Tracer Only control and No Tracer control into corresponding wells, respectively; • Incubate at 28 °C for 1 h, on a plate shaker in a low speed; • Measure florescence polarization (FP) on TECAN F500. Excitation wavelength: 610 nm, Emission wavelength: 670 nm.
(§1) • [ADP] in Compound well represents the ADP concentration in compound well. • [ADP] in Positive control well represents the ADP concentration in 5% DMSO well • Conversion of mP value to ADP concentration is calculated based on the formula which determined by standard curve. And mP value is measured by following the instruction provided by BellBrook Labs. (www.bellbrooklabs.com). 6. IC50: calculated using XL-Fit 2.0 software.

A further assay has as its target FGFR3 kinase (Homo sapiens, UniProt P22607). The assay is described as follows: Z-Lyte Kinase Assay of FGFR3. The protocol: Z-Lyte Kinase Assay of FGFR3
The final concentrations are 1, 0.33, 0.11, 0.037, 0.012, 0.004, 0.0014, 0.00046 μM, and the final concentration of DMSO is 2%. • 3) Kinase/Peptide Mixture (P/K solution): Prepare Kinase/Peptide Mixture by diluting the kinase to 0.7 μg/ml and the Z-LYTE™ Tyr 4 peptide to 4 μM in 1.33× Kinase Buffer. Mix gently by pipetting. • 4) Phospho-peptide Solution (PP solution): Add 0.4 μl of Z-LYTE™ Tyr 4 Phospho-peptide to 99.6 μl of 1.33× Kinase Buffer. • 5) ATP Solution: Prepare ATP Solution by diluting the 10 mM of ATP in 1.33× Kinase Buffer to 300 uM. • 6) Development Solution: Dilute Development Reagent B with Development Buffer as 1:128.
Shake the plate for 30 Sec and centrifuge (1500 rpm, 1 min) • Seal the plate to protect from the light and incubate the plate for 1 hour at RT (25-30[…]) • 2) Development reaction • Add 5 μl of the Development solution to all wells • Shake the plate for 30 Sec and centrifuge (1500 rpm, 1 min) • Seal the plate to protect from the light and incubate the plate for 1 hour at RT (25-30[…]) • 3) Stop and read • Add 5 μl of the Stop reagent to all wells • Shake the plate for 30 Sec and centrifuge (1500 rpm, 1 min) • Measure the value of Coumarin (Ex400 nm, Em445 nm) and fluorescein (Ex400 nm, Em520 nm), respectively.
Inhibition rate(IR)=1−%Photest Cpd/%PhoC2
• determined with add-in software for Microsoft Excel, XLfit™ (version 2.0) from ID Business Solutions (Guildford, UK)

The target in a further assay is Recombinant human FGFR1 (Homo sapiens, UniProt P11362). The assay is described as follows: Transcreener Kinase Assay of FGFR1. The conditions noted are these: read-out: FGFR1 (FP) IC50. The protocol:
Transcreener Kinase Assay of FGFR1
Prepare Solution • Compounds were solved in DMSO and were diluted with assay buffer to 5 folds of final concentration keeping the DMSO concentration at 5%. Further dilution are needed to make final concentrations are at 1, 0.33, 0.11, 0.037, 0.012, 0.004, 0.0014, 0.0005 μM; (the final concentration of DMSO is 1%). • Enzyme/Substrate stock Preparation: Recombinant human FGFR1 and Poly E4Y are both diluted in assay buffer.
Enzymatic Reaction • In a 96-well plate, Add 5 μL of compound or control. (positive control: 5 μL of 5% DMSO; negative control: 5 μL of 500 mM EDTA) into desired wells; • Add 10 μL of Enzyme/Substrate stock into each well; • Add 10 μL of ATP Diluents to initiate the enzyme reaction and votex the plate immediately on a plate shaker; • For the wells to make standard curve, add 5 μL of 5% DMSO, 10 μL of assay buffer and 10 μL of ATP standard curve stock. • Incubate the plate for 45 min at 28[…] on a plate shaker in a low speed.
Excitation wavelength: 610 nm, Emission wavelength: 670 nm.
as §1

Sequence of Recombinant human FGFR2 (P21802 22-821): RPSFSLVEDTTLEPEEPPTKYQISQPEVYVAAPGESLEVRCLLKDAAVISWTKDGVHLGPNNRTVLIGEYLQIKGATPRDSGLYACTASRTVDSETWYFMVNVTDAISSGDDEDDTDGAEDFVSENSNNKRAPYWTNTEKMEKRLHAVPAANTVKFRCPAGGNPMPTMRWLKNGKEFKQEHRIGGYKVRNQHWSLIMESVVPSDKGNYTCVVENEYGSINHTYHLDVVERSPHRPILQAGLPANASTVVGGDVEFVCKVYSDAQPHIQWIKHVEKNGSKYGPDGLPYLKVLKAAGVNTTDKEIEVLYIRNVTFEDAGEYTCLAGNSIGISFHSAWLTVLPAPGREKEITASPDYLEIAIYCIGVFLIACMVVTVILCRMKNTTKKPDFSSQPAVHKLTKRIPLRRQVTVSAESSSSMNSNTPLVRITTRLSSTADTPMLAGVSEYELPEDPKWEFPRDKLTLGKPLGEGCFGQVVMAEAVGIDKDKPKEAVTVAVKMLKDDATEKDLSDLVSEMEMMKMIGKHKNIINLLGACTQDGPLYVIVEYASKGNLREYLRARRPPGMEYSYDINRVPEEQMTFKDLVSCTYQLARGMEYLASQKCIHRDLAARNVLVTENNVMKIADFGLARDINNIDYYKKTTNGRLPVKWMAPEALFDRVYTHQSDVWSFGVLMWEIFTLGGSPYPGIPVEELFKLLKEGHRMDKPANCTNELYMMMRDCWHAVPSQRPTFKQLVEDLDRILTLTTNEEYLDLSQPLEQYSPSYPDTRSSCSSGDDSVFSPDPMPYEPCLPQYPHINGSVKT
Sequence of FGFR3 kinase (P22607 23-806): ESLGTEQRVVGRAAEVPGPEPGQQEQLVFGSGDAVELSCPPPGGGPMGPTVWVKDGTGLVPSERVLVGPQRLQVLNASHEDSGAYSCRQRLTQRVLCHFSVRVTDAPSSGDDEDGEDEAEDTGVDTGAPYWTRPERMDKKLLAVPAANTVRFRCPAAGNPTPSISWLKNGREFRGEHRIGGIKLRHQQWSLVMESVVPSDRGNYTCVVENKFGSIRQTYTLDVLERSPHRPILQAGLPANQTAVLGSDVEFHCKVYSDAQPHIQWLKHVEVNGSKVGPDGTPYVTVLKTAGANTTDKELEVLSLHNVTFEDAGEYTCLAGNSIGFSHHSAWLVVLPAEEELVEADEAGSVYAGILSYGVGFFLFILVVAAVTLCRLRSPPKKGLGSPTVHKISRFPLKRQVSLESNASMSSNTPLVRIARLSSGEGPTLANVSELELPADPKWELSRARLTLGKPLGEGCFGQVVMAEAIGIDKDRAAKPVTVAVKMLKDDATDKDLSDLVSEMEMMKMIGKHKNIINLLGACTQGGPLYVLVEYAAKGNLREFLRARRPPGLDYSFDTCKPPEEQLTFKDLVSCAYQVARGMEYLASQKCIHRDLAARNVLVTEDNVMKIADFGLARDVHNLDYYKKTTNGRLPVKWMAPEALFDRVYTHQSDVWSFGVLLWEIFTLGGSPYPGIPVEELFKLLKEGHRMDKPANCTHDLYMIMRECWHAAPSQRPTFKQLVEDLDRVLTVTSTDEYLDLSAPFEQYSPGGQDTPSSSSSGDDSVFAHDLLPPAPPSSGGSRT
Sequence of Recombinant human FGFR1 (P11362 22-822): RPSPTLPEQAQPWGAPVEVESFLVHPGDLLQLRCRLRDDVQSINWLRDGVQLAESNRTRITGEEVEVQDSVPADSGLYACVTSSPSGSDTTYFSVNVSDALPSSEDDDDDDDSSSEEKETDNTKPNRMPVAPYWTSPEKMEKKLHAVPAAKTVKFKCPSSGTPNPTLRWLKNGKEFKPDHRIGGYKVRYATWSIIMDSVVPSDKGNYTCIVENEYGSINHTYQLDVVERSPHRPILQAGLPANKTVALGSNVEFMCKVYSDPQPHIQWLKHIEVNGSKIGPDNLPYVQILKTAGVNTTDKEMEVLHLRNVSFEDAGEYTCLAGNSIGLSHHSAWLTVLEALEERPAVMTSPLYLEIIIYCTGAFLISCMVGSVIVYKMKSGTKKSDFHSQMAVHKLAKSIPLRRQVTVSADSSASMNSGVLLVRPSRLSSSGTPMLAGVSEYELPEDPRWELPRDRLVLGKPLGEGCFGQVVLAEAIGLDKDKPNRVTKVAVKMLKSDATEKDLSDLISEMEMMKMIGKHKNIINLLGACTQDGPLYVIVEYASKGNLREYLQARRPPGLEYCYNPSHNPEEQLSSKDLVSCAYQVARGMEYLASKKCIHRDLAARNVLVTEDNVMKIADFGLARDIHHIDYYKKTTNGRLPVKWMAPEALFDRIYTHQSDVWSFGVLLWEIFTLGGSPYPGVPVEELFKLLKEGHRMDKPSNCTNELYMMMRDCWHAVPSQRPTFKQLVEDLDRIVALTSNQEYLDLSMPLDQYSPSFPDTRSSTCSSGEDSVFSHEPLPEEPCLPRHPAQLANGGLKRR

`CCN1CCN(c2ccc(Nc3ncc(CCc4cc(C(=O)NC)cc5occc45)cn3)cc2)CC1` [Compound 4]: the IC50 stood at 0.233 µM at Recombinant human FGFR2, 0.795 µM against FGFR3 kinase and 0.201 µM at Recombinant human FGFR1.

With `CCN1CCN(c2ccc(Nc3ncc(CCc4cc(C(=O)NOC)cc5c4CCO5)cn3)cc2)CC1` [Compound 6], the values for the IC50 on Recombinant human FGFR2 and on Recombinant human FGFR1 were 0.986 µM and 0.922 µM, respectively.

For `CCN1CCN(c2ccc(Nc3ncc(CCc4cc(C(=O)NC5CC5)cc5occc45)cn3)cc2)CC1` [Compound 7], the IC50 is 0.169 µM on Recombinant human FGFR2, 0.59 µM at FGFR3 kinase and 0.143 µM at Recombinant human FGFR1.

As for `CNC(=O)c1cc(CCc2cnc(Nc3cccc(N4C[C@@H](C)N[C@@H](C)C4)c3)nc2)cc(OC)c1` [Compound 12], the results for the IC50 on Recombinant human FGFR2, at FGFR3 kinase and at Recombinant human FGFR1 were 0.025 µM, 0.128 µM and 0.098 µM, respectively.

Regarding `CCn1cnc(Nc2ncc(CCc3cc(C(=O)NC)cc(OC)c3F)cn2)c1` [Compound 28], the IC50 at Recombinant human FGFR2 was 0.245 µM; at FGFR3 kinase, 0.347 µM; on Recombinant human FGFR1, 0.36 µM.

As to `CCOc1cc(CCc2cnc(Nc3ccc(N4CCN(CC)CC4)cc3)nc2)cc(C(=O)NOC)c1` [Compound 51], the values for the IC50 at Recombinant human FGFR2, at FGFR3 kinase and at Recombinant human FGFR1 were 0.113 µM, 0.175 µM and 0.103 µM, respectively.

Consider `CCN1CCN(c2ccc(Nc3ncc(CCc4cc(OC)cc(C(=O)NOC(C)C)c4)cn3)cc2)CC1` [Compound 58], for which the IC50 on Recombinant human FGFR2 turned out to be 0.123 µM; against FGFR3 kinase, 0.509 µM; at Recombinant human FGFR1 it was 0.325 µM.

With `CNC(=O)c1cc(CCc2cnc(Nc3ccn4cnnc4c3)nc2)c(F)c(OC)c1` [Compound 68], the concentration for half-maximal inhibition (IC50) on Recombinant human FGFR2 was 0.013 µM; against FGFR3 kinase, 0.025 µM; on Recombinant human FGFR1 it was 0.031 µM.

As for `CNC(=O)c1cc(CCc2cnc(Nc3ccn4c(C)nnc4c3)nc2)c(F)c(OC)c1` [Compound 70], the IC50 on Recombinant human FGFR2 came to 0.016 µM; at FGFR3 kinase it was 0.022 µM; on Recombinant human FGFR1 it was 0.027 µM.

On to `CNC(=O)c1cc(CCc2cnc(Nc3ccn4c(COC)nnc4c3)nc2)c(F)c(OC)c1` [Compound 73], for which the IC50 was found to be 0.011 µM on Recombinant human FGFR2, 0.04 µM against FGFR3 kinase and 0.034 µM at Recombinant human FGFR1.

On to `CNC(=O)c1cc(CCc2cnc(Nc3cc[n+]([O-])c(C)c3)nc2)c(F)c(OC)c1` [Compound 78, 4-((5-(2-fluoro-3-methoxy-5-(methylcarbamoyl)phenethyl)pyrimidin-2-yl)amino)-2-methylpyridine 1-oxide], for which the IC50 at Recombinant human FGFR2 was determined as 0.018 µM; against FGFR3 kinase it was 0.031 µM; on Recombinant human FGFR1, 0.044 µM.

With `CNC(=O)c1cc(CCc2cnc(Nc3c(C)nn(C)c3C)nc2)c(F)c(OC)c1` [Compound 109], the IC50 worked out at 0.275 µM on Recombinant human FGFR2, 0.311 µM against FGFR3 kinase and 0.379 µM at Recombinant human FGFR1.

As to `CNC(=O)c1cc(CCc2cnc(Nc3cnn(CC(=O)N4CCN(C)CC4)c3)nc2)c(F)c(OC)c1` [Compound 144], the concentration for half-maximal inhibition (IC50) on Recombinant human FGFR2 stood at 0.006 µM; against FGFR3 kinase, 0.016 µM; at Recombinant human FGFR1, 0.013 µM.

Regarding `CNC(=O)c1cc(CCc2cnc(Nc3cnn(C4CCNCC4)c3)nc2)c(Cl)c(OC)c1` [Compound 158, 4-chloro-3-methoxy-N-methyl-5-(2-(2-(1-(piperidin-4-yl)-1H-pyrazol-4-ylamino)pyrimidin-5-yl)ethyl)benzamide], the IC50 on Recombinant human FGFR2 is 0.008 µM; on FGFR3 kinase, 0.006 µM; at Recombinant human FGFR1, 0.008 µM.

On to `CNC(=O)c1cc(CCc2cnc(Nc3cnn(C4CNC4)c3)nc2)c(F)c(OC)c1` [Compound 160], for which the IC50 was determined as 0.01 µM at Recombinant human FGFR2, 0.016 µM at FGFR3 kinase and 0.015 µM on Recombinant human FGFR1.

Regarding `CNC(=O)c1cc(CCc2cnc(Nc3cnn([C@@H]4CCNC4)c3)nc2)c(F)c(OC)c1` [Compound 161], the 50% inhibitory concentration (IC50) on Recombinant human FGFR2 came to 0.009 µM; against FGFR3 kinase, 0.012 µM; on Recombinant human FGFR1 it was 0.017 µM.

On to `CNC(=O)c1cc(CCc2cnc(Nc3cnn([C@H]4CCNC4)c3)nc2)c(F)c(OC)c1` [Compound 162], for which the concentration for half-maximal inhibition (IC50) at Recombinant human FGFR2 was found to be 0.01 µM; against FGFR3 kinase it was 0.014 µM; on Recombinant human FGFR1, 0.017 µM.

Regarding `CNC(=O)c1cc(CCc2cnc(Nc3cnn(C4CCNCC4)c3)nc2)c(F)c(OC)c1` [Compound 164], the IC50 at Recombinant human FGFR2, against FGFR3 kinase and at Recombinant human FGFR1 was 0.008 µM throughout.

For the molecule `CCN1CC[C@@H](n2cc(Nc3ncc(CCc4cc(C(=O)NC)cc(OC)c4F)cn3)cn2)C1` [Compound 170], the IC50 came out at 0.087 µM at Recombinant human FGFR2, 0.132 µM on FGFR3 kinase and 0.099 µM at Recombinant human FGFR1.

In the case of `CCn1cc(Nc2ccc(OCc3cc(C(=O)NC)cc(OC)c3F)cn2)cn1` [Compound 187], the IC50 on Recombinant human FGFR2 worked out at 0.132 µM; against FGFR3 kinase, 0.227 µM; at Recombinant human FGFR1, 0.271 µM.

For the molecule `CNC(=O)c1cc(COc2cnc(Nc3cnn(C4C[C@@H](C)N[C@@H](C)C4)c3)nc2)c(F)c(OC)c1` (some centres unmarked) [Compound 202], the IC50 on Recombinant human FGFR2 turned out to be 0.006 µM; at FGFR3 kinase it was 0.007 µM; at Recombinant human FGFR1 it was 0.015 µM.

As to `CNC(=O)c1cc(CCc2cnc(Nc3ccc(CC(=O)O)cc3)nc2)c(F)c(OC)c1` [Compound 206], the IC50 was 0.013 µM at Recombinant human FGFR2, 0.021 µM on FGFR3 kinase and 0.038 µM at Recombinant human FGFR1.

As for `CNC(=O)c1cc(COc2cnc(Nc3ccc(CC(=O)O)cc3)nc2)c(F)c(OC)c1` [Compound 207], the IC50 at Recombinant human FGFR2 stood at 0.016 µM; against FGFR3 kinase it was 0.029 µM; on Recombinant human FGFR1, 0.045 µM.

For the molecule `C#Cc1ccc(Nc2ncc(OCc3cc(C(=O)NC)cc(OC)c3F)cn2)cc1` [Compound 210], the results for the IC50 on Recombinant human FGFR2, against FGFR3 kinase and at Recombinant human FGFR1 were 0.027 µM, 0.69 µM and 0.119 µM, respectively.

Regarding `CNC(=O)c1cc(CCc2cnc(Nc3ccc(N4C[C@@H](C)N[C@@H](C)C4)nc3)nc2)c(Cl)c(OC)c1` [Compound 214], the 50% inhibitory concentration (IC50) on Recombinant human FGFR2 was 0.011 µM; against FGFR3 kinase, 0.017 µM; on Recombinant human FGFR1, 0.01 µM.

Take `CNC(=O)c1cc(COc2cnc(Nc3ccc(N4C[C@@H](C)N[C@@H](C)C4)c(F)c3)nc2)c(Cl)c(OC)c1` [Compound 220]: the half-inhibitory concentration (IC50) on Recombinant human FGFR2 came out at 0.004 µM; on FGFR3 kinase it was 0.01 µM; on Recombinant human FGFR1, 0.01 µM.

The record behind these values is patent US20160052926A1, “NOVEL PYRIMIDINE AND PYRIDINE COMPOUNDS AND USAGE THEREOF” (HUTCHISON MEDIPHARMA LIMITED, priority 2013, published 2016).
